Test results from patent publication US9139557B2, “Carboxamide compounds and their use as calpain inhibitors” (Abbott GmbH & Co. KG, priority 2006, dated 2015).

What was measured:
Assay type in all cases: biochemical
cathepsin S = molecular target: T1, cathepsin S (Homo sapiens, UniProt P25774); assay: Cathepsin S enzyme inhibition in vitro (kinetic fluorescence assay); settings: Ki(cathepsin S)/Ki(calpain) ratio
T1 construct: purchased Calbiochem 219343; host or cells: E. coli
How it was run: (§1)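 Kinetic fluorescence (ex 390/em 460 nm), room temperature: calpain-I (human erythrocyte, 20 nM) with 100 µM Suc-Leu-Tyr-AMC, imidazole/CaCl2 pH 7.3; cathepsin B (liver, 0.25 nM), 100 µM Z-Phe-Arg-AMC; L (liver, 1 nM), 2 µM Z-Phe-Arg-AMC; S (recombinant, 0.5 nM), 20 µM Z-Val-Val-Arg-AMC; cathepsins in MES/EDTA/cysteine pH 6.0. Apparent Ki via Cheng-Prusoff, 2–4 curves averaged.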

cathepsin B = molecular target: T2, cathepsin B (Homo sapiens, UniProt P07858); assay: Cathepsin B enzyme inhibition in vitro (kinetic fluorescence assay); settings: Ki(cathepsin B)/Ki(calpain) ratio
T2 construct: cathepsin B—isolated from human liver; purchased Calbiochem 219362; host or cells: human liver (tissue isolate)
How it was run: as §1

cathepsin L = molecular target: T3, cathepsin L (Homo sapiens, UniProt P07711); assay: Cathepsin L enzyme inhibition in vitro (kinetic fluorescence assay); settings: Ki(cathepsin L)/Ki(calpain) ratio
T3 construct: cathepsin L—isolated from human liver; purchased Calbiochem 219402; host or cells: human liver (tissue isolate)
T3 sequence (P07711 114-333): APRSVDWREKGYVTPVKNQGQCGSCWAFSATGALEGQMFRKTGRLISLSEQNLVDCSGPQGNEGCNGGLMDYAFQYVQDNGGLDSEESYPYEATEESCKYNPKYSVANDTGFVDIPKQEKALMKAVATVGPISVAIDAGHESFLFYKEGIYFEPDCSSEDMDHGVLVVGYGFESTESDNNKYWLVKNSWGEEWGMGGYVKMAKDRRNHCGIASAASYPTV
How it was run: as §1

cathepsin K = molecular target: T4, cathepsin K (Homo sapiens, UniProt P43235); assay: Cathepsin K enzyme inhibition in vitro (kinetic fluorescence assay); settings: Ki(cathepsin K)/Ki(calpain) ratio
T4 construct: purchased Calbiochem 342001; host or cells: E. coli
T4 sequence (P43235 115-329): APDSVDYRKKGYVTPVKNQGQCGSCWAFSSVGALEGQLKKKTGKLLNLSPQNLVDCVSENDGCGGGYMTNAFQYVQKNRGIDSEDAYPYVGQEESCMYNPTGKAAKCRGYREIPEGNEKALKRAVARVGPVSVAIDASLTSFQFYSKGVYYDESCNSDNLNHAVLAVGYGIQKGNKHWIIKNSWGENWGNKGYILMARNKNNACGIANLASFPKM

T1 sequence (P25774 115-331): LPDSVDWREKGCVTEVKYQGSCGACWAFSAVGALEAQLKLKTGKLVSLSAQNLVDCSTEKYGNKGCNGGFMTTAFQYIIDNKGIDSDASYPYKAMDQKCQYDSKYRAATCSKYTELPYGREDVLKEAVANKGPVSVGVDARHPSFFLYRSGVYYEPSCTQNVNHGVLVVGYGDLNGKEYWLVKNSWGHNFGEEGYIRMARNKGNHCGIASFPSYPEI

Compound	Sel cat. S (cathepsin S)	Sel cat. B (cathepsin B)	Sel cat. L (cathepsin L)	Sel cat. K (cathepsin K)
COc1ccc(CC(NC(=O)c2cccnc2-n2ccc(-c3ccccc3F)n2)C(=O)C(N)=O)cc1 (stereo not shown) [Example 92, N-(3-Amino-1-{[4-(methyloxy)phenyl]methyl}-2,3-dioxopropyl)-2-[3-(2-fluorophenyl)-1H-pyrazol-1-yl]pyridine-3-carboxamide]	++ (++ means a Ki(cathepsin S)/Ki(calpain) ratio of ≧100)	++ (++ means a Ki(cathepsin B)/Ki(calpain) ratio of ≧30)	++ (++ means a Ki(cathepsin L)/Ki(calpain) ratio of ≧50)	+ (+ means 10≦Ki(cathepsin K)/Ki(calpain)<30)
NC(=O)C(=O)C(Cc1ccccc1)NC(=O)c1cccnc1-n1ccc(-c2cccs2)n1 (stereo not shown) [Example 55, N-(3-Amino-1-benzyl-2,3-dioxopropyl)-2-[3-(2-thienyl)-1H-pyrazol-1-yl]nicotinamide]	++ (++ means a Ki(cathepsin S)/Ki(calpain) ratio of ≧100)	+ (+ means 10≦Ki(cathepsin B)/Ki(calpain)<30)	++ (++ means a Ki(cathepsin L)/Ki(calpain) ratio of ≧50)	+ (+ means 10≦Ki(cathepsin K)/Ki(calpain)<30)
NC(=O)C(=O)C(Cc1ccccc1)NC(=O)c1cccnc1-n1ccc(-c2c(F)ccc(Cl)c2Cl)n1 (stereo not shown) [Example 120, N-[3-Amino-2,3-dioxo-1-(phenylmethyl)propyl]-2-[3-(2,3-dichloro-6-fluorophenyl)-1H-pyrazol-1-yl]pyridine-3-carboxamide]	++ (++ means a Ki(cathepsin S)/Ki(calpain) ratio of ≧100)	++ (++ means a Ki(cathepsin B)/Ki(calpain) ratio of ≧30)	+ (+ means 30≦Ki(cathepsin L)/Ki(calpain)<50)	++ (++ means a Ki(cathepsin K)/Ki(calpain) ratio of ≧30)
NC(=O)C(=O)C(Cc1ccccc1)NC(=O)c1cccnc1-n1ccc(C23CC4CC(CC(C4)C2)C3)n1 (stereo not shown) [Example 193, N-[3-Amino-2,3-dioxo-1-(phenylmethyl)propyl]-2-(3-tricyclo[3.3.1.1^3,7]dec-1-yl-1H-pyrazol-1-yl)pyridine-3-carboxamide]	++ (++ means a Ki(cathepsin S)/Ki(calpain) ratio of ≧100)	++ (++ means a Ki(cathepsin B)/Ki(calpain) ratio of ≧30)	++ (++ means a Ki(cathepsin L)/Ki(calpain) ratio of ≧50)	++ (++ means a Ki(cathepsin K)/Ki(calpain) ratio of ≧30)
NC(=O)C(=O)C(Cc1ccccc1)NC(=O)c1cccnc1-n1ccc(-c2ccc(N3CCCC3)cc2)n1 (stereo not shown) [Example 69, N-(3-Amino-1-benzyl-2,3-dioxopropyl)-2-[3-(4-pyrrolidin-1-ylphenyl)-1H-pyrazol-1-yl]nicotinamide]	++ (++ means a Ki(cathepsin S)/Ki(calpain) ratio of ≧100)	+ (+ means 10≦Ki(cathepsin B)/Ki(calpain)<30)	++ (++ means a Ki(cathepsin L)/Ki(calpain) ratio of ≧50)	+ (+ means 10≦Ki(cathepsin K)/Ki(calpain)<30)
NC(=O)C(=O)C(Cc1ccccc1)NC(=O)c1cccnc1-n1ccc(-c2ccc(F)cc2F)n1 (stereo not shown) [Example 94, N-[3-Amino-2,3-dioxo-1-(phenylmethyl)propyl]-2-[3-(2,4-difluorophenyl)-1H-pyrazol-1-yl]pyridine-3-carboxamide]	++ (++ means a Ki(cathepsin S)/Ki(calpain) ratio of ≧100)	++ (++ means a Ki(cathepsin B)/Ki(calpain) ratio of ≧30)	++ (++ means a Ki(cathepsin L)/Ki(calpain) ratio of ≧50)	+ (+ means 10≦Ki(cathepsin K)/Ki(calpain)<30)
COc1ccc(CC(NC(=O)c2cccnc2-n2ccc(-c3ccc(F)cc3F)n2)C(=O)C(N)=O)cc1 (stereo not shown) [Example 97, N-(3-Amino-1-{[4-(methyloxy)phenyl]methyl}-2,3-dioxopropyl)-2-[3-(2,4-difluorophenyl)-1H-pyrazol-1-yl]pyridine-3-carboxamide]	++ (++ means a Ki(cathepsin S)/Ki(calpain) ratio of ≧100)	++ (++ means a Ki(cathepsin B)/Ki(calpain) ratio of ≧30)	++ (++ means a Ki(cathepsin L)/Ki(calpain) ratio of ≧50)	+ (+ means 10≦Ki(cathepsin K)/Ki(calpain)<30)
NC(=O)C(=O)C(Cc1ccccc1)NC(=O)c1cccnc1-n1ccc(-c2cccc3cccnc23)n1 (stereo not shown) [Example 160, N-[3-amino-2,3-dioxo-1-(phenylmethyl)propyl]-2-(3-quinolin-8-yl-1H-pyrazol-1-yl)pyridine-3-carboxamide]	++ (++ means a Ki(cathepsin S)/Ki(calpain) ratio of ≧100)	++ (++ means a Ki(cathepsin B)/Ki(calpain) ratio of ≧30)	++ (++ means a Ki(cathepsin L)/Ki(calpain) ratio of ≧50)	++ (++ means a Ki(cathepsin K)/Ki(calpain) ratio of ≧30)
COc1ccc(CC(NC(=O)c2cccnc2-n2ccc(-c3cccc(F)c3Cl)n2)C(=O)C(N)=O)cc1 (stereo not shown) [Example 157, N-(3-Amino-1-{[4-(methyloxy)phenyl]methyl}-2,3-dioxopropyl)-2-[3-(2-chloro-3-fluorophenyl)-1H-pyrazol-1-yl]pyridine-3-carboxamide]	++ (++ means a Ki(cathepsin S)/Ki(calpain) ratio of ≧100)	++ (++ means a Ki(cathepsin B)/Ki(calpain) ratio of ≧30)	++ (++ means a Ki(cathepsin L)/Ki(calpain) ratio of ≧50)	++ (++ means a Ki(cathepsin K)/Ki(calpain) ratio of ≧30)
COc1ccc(CC(NC(=O)c2cccnc2-n2ccc(-c3cccc(Cl)c3Cl)n2)C(=O)C(N)=O)cc1 (stereo not shown) [Example 153, N-(3-Amino-1-{[4-(methyloxy)phenyl]methyl}-2,3-dioxopropyl)-2-[3-(2,3-dichlorophenyl)-1H-pyrazol-1-yl]pyridine-3-carboxamide]	++ (++ means a Ki(cathepsin S)/Ki(calpain) ratio of ≧100)	++ (++ means a Ki(cathepsin B)/Ki(calpain) ratio of ≧30)	++ (++ means a Ki(cathepsin L)/Ki(calpain) ratio of ≧50)	++ (++ means a Ki(cathepsin K)/Ki(calpain) ratio of ≧30)
NC(=O)C(=O)C(Cc1ccccc1)NC(=O)c1cccnc1-n1cc2c(n1)-c1ccccc1CC2 (stereo not shown) [Example 63, N-(3-Amino-1-benzyl-2,3-dioxopropyl)-2-(4,5-dihydro-2H-benzo[g]indazol-2-yl)nicotinamide]	++ (++ means a Ki(cathepsin S)/Ki(calpain) ratio of ≧100)	+ (+ means 10≦Ki(cathepsin B)/Ki(calpain)<30)	++ (++ means a Ki(cathepsin L)/Ki(calpain) ratio of ≧50)	+ (+ means 10≦Ki(cathepsin K)/Ki(calpain)<30)
Cl.NC(=O)C(=O)C(Cc1cccnc1)NC(=O)c1cccnc1-n1ccc(-c2ccccc2)n1 (stereo not shown) [Example 88, N-[3-Amino-2,3-dioxo-1-(pyridin-3-ylmethyl)propyl]-2-(3-phenyl-1H-pyrazol-1-yl)pyridine-3-carboxamide hydrochloride]	++ (++ means a Ki(cathepsin S)/Ki(calpain) ratio of ≧100)	+ (+ means 10≦Ki(cathepsin B)/Ki(calpain)<30)	++ (++ means a Ki(cathepsin L)/Ki(calpain) ratio of ≧50)	++ (++ means a Ki(cathepsin K)/Ki(calpain) ratio of ≧30)
NC(=O)C(=O)[C@H](Cc1ccccc1)NC(=O)c1cccnc1-n1ccc(-c2ccccc2)n1 [Example 107, N-[(1S)-3-Amino-2,3-dioxo-1-(phenylmethyl)propyl]-2-(3-phenyl-1H-pyrazol-1-yl)pyridine-3-carboxamide]	++ (++ means a Ki(cathepsin S)/Ki(calpain) ratio of ≧100)	+ (+ means 10≦Ki(cathepsin B)/Ki(calpain)<30)	++ (++ means a Ki(cathepsin L)/Ki(calpain) ratio of ≧50)	+ (+ means 10≦Ki(cathepsin K)/Ki(calpain)<30)
NC(=O)C(=O)C(Cc1ccccc1)NC(=O)c1cccnc1-n1ccc(-c2cc(Cl)ccc2Cl)n1 (stereo not shown) [Example 112, N-[3-Amino-2,3-dioxo-1-(phenylmethyl)propyl]-2-[3-(2,5-dichlorophenyl)-1H-pyrazol-1-yl]pyridine-3-carboxamide]	++ (++ means a Ki(cathepsin S)/Ki(calpain) ratio of ≧100)	++ (++ means a Ki(cathepsin B)/Ki(calpain) ratio of ≧30)	++ (++ means a Ki(cathepsin L)/Ki(calpain) ratio of ≧50)	++ (++ means a Ki(cathepsin K)/Ki(calpain) ratio of ≧30)
NC(=O)C(=O)C(Cc1ccccc1)NC(=O)c1cccnc1-n1ccc(-c2ccccc2Cl)n1 (stereo not shown) [Example 54, N-(3-Amino-1-benzyl-2,3-dioxopropyl)-2-[3-(2-chlorophenyl)-1H-pyrazol-1-yl]nicotinamide]	++ (++ means a Ki(cathepsin S)/Ki(calpain) ratio of ≧100)	++ (++ means a Ki(cathepsin B)/Ki(calpain) ratio of ≧30)	++ (++ means a Ki(cathepsin L)/Ki(calpain) ratio of ≧50)	++ (++ means a Ki(cathepsin K)/Ki(calpain) ratio of ≧30)
N-[3-Amino-2,3-dioxo-1-(phenylmethyl)propyl]-2-[3-(3,5-dichlorophenyl)-1H-pyrazol-1-yl]pyridine-3-carboxamide [Example 89]	++ (++ means a Ki(cathepsin S)/Ki(calpain) ratio of ≧100)	+ (+ means 10≦Ki(cathepsin B)/Ki(calpain)<30)	++ (++ means a Ki(cathepsin L)/Ki(calpain) ratio of ≧50)	+ (+ means 10≦Ki(cathepsin K)/Ki(calpain)<30)
